Results published in patent publication US9115345B2, “MicroRNA induction of pluripotential stem cells and uses thereof” (The Trustees Of The University Of Pennsylvania, priority 2010, dated 2015).
Entries after “also recorded” stand apart in the source; their conditions may differ.

How the values were obtained:
[1] = tested on: human foreskin and dermal fibroblasts; experiment: Reprogramming of human fibroblasts: colonies with human ES like morphology; type: cell-based
Experimental: (§1) Mouse fibroblasts were isolated from Oct4-GFP, Rosa26-LacZ and Hdac2^flax/flax embryos at E13.5 and cultured in fibroblast medium as described (Takahashi et al., 2007). Hdac2 was excised by infection of Hdac2^flax/flax MEFs with adeno-cre virus. Human dermal fibroblast were cultured in DMEM/F12, 15% FBS, penicillin/streptomycin and L-glutamine. Viral particles were generated by transfection of plated 293T cells with pLOVE vectors encoding miR302/367, Oct4, Sox2, Klf4, or N-myc along with pMD.G and psPAX2 vectors as described (Blelloch et al., 2007). Supernatant from the transfected cells were collected every 24 hr for 48 hrs and titered. The titered viral suspension was mixed with 0.5 μl (0.1 of 10 μg/mL polybrene (American Bioanalytical, MA) per milliliter of viral suspension and used to infect fibroblasts. After viral infection, mouse fibroblast were cultured in mouse ES medium supplemented with or without valproic acid at a final concentration of 2 mM for the indicated length of time. Infected human fibroblast were culture in human ES medium as described (Huangfu et al., 2008a; Takahashi et al., 2007).

Hdac1 = experiment: Western blot for Hdac1 in MEFs; type: cell-based, mouse; conditions: MEFs during miR302/367 reprogramming
Experimental: (§2) Total cell lysates were prepared for Western blotting as previously described (Trivedi et al., 2008). Equal amounts of protein were resolved by SDS-PAGE and transferred to polyvinylidenedifluoride membranes. Membranes were incubated with Hdac1 antibody (1:1000 dilution, Cell Signaling), Hdac2 antibody (1:1000 dilution, Invitrogen) or Hdac3 antibody (1:1000 dilution, Sigma). Primary antibody binding was visualized by HRP-conjugated secondary antibody and detected by enhanced chemiluminescence (LumiGlo, Cell Signaling). For loading control, membranes were reprobed with primary antibody against GAPDH (1:2500 dilution, Abeam).

Hdac2 = experiment: Western blot for Hdac2 in MEFs; type: cell-based, mouse; conditions: MEFs during miR302/367 reprogramming
Experimental: as §2

Hdac3 = experiment: Western blot for Hdac3 in MEFs; type: cell-based, mouse; conditions: MEFs during miR302/367 reprogramming
Experimental: as §2

MEFs = experiment: CellTiter proliferation assay for MEFs; type: cell-based, mouse; conditions: wild-type and Hdac2-/- MEFs
Experimental: Proliferation assays for MEFs were performed using the CellTiter 96 Aqueous One Solution Cell Proliferation kit (Promega, Inc.). 20 μl of CellTiter Reagent, which functions by being incorporated by viable cells into a colorimetric product that can be measured at 490 nm, was added to 100 μL of culture medium, incubated at 37° C. […] absorbance was measured at 490 nm at 1.5 hours, 2.5 hours, and 4.5 hours.

Hdac2-/- MEFs = experiment: miR302/367 reprogramming of Hdac2-/- MEFs; type: cell-based, mouse; conditions: Hdac2-/- MEFs transduced with miR302/367
Experimental: as §1
The Hdac2p^flox/flox allele was generated by flanking exon 2 with loxP recombination sites using the targeting vector depicted in FIG. 19A. […]

Oct4-GFP MEFs = experiment: iPS reprogramming of Oct4-GFP MEFs: clones with ES like morphology and Oct4-GFP positive clones; type: cell-based, mouse; conditions: day 10 of reprogramming; culture up to three weeks
Experimental: as §1

Compound	requirement for and effect of VPA on reprogramming human fibroblasts by miR302/367 [1]	Hdac1 protein expression level (Hdac1)	Hdac2 protein level (Hdac2)	Hdac3 protein expression level (Hdac3)	proliferation rates in MEFs (MEFs)	effect of VPA addition on number of iPS cell clones (Hdac2-/- MEFs)	iPS cell colony generation in MEFs (Oct4-GFP MEFs)
CCCC(CCC)C(=O)O [VPA, valproic acid]	not required; also recorded: did not affect the efficiency of reprogramming	unchanged	caused degradation of Hdac2 protein	unchanged	did not affect proliferation rates	did not change the number of iPS cell clones	
miR367: miR367 expressed alone; sequence AAUUGCACUUUAGCAAUGGUGA (SEQ ID NO: 8) (listed as Homo sapiens)							did not reprogram fibroblasts
